Measured values as given in the supplement of paper PMC10307832.

What was measured:
Test in all cases: relative viability (nuclei count vs DMSO), 5 days (fraction); higher = more cells survive
[1] = compound: CN(C)C(=N)NC(=N)N [Metformin] + O=C(c1cc(Cc2n[nH]c(=O)c3ccccc23)ccc1F)N1CCN(C(=O)C2CC2)CC1 [Olaparib] (partner 8 µM)
In short: (§1)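 Lung cancer cell lines were pin-tool dosed in 1536-well plates on the day after seeding, with either a lone drug or a fixed anchor-drug dose plus five library-drug doses (not always all listed) in √10 steps. Nuclei were counted on 4× images after 5 days. Relative viability is the ratio of treated-well to vehicle-well nuclei counts, with each value a median of duplicate plates.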

[2] = compound: CN(C)C(=N)NC(=N)N [Metformin] + Cc1cc(Nc2cc(N3CCN(C)CC3)nc(Sc3ccc(NC(=O)C4CC4)cc3)n2)n[nH]1 [Tozasertib] (partner 0.1 µM)
In short: as §1

[3] = compound: CN(C)C(=N)NC(=N)N [Metformin] + CS(=O)(=O)CCNCc1ccc(-c2ccc3ncnc(Nc4ccc(OCc5cccc(F)c5)c(Cl)c4)c3c2)o1 [Lapatinib] (partner 2 µM)
In short: as §1

[4] = compound: CN(C)C(=N)NC(=N)N [Metformin] + CC(C)C[C@H](NC(=O)[C@H](Cc1ccccc1)NC(=O)c1cnccn1)B(O)O [Bortezomib] (partner 0.002 µM)
In short: as §1

| Cell Line | relative viability ([1]; first compound 10 µM) | relative viability ([1]; first compound 31.62 µM) | relative viability ([1]; first compound 100 µM) | relative viability ([1]; first compound 316.23 µM) | relative viability ([1]; first compound 1000 µM) | relative viability ([2]; first compound 10 µM) | relative viability ([2]; first compound 31.62 µM) | relative viability ([2]; first compound 100 µM) | relative viability ([2]; first compound 316.23 µM) | relative viability ([2]; first compound 1000 µM) | relative viability ([3]; first compound 10 µM) | relative viability ([3]; first compound 31.62 µM) | relative viability ([3]; first compound 100 µM) | relative viability ([3]; first compound 316.23 µM) | relative viability ([3]; first compound 1000 µM) | relative viability ([4]; first compound 10 µM) | relative viability ([4]; first compound 31.62 µM) | relative viability ([4]; first compound 100 µM) | relative viability ([4]; first compound 316.23 µM) | relative viability ([4]; first compound 1000 µM) |
| --- | --- | --- | --- | --- | --- | --- | --- | --- | --- | --- | --- | --- | --- | --- | --- | --- | --- | --- | --- | --- |
| LK-2 | 0.79 | 0.509 | 0.644 | 0.734 | 0.873 | 0.163 | 0.189 | 0.183 | 0.174 | 0.174 | 1.22 | 1.19 | 1.23 | 0.878 | 0.697 | – | – | – | – | – |
| NCI-H1944 | 0.385 | 0.381 | 0.479 | 0.397 | 0.471 | 0.314 | 0.279 | 0.288 | 0.245 | 0.297 | 0.686 | 0.961 | 0.931 | 0.751 | 0.886 | – | – | – | – | – |
| A549 | 0.281 | 0.308 | 0.324 | 0.269 | 0.368 | – | – | – | – | – | 0.946 | 0.934 | 0.909 | 0.722 | 0.923 | – | – | – | – | – |
| NCI-H2342 | – | 0.375 | 0.372 | 0.418 | 0.358 | 0.507 | 0.447 | 0.618 | 0.35 | 0.276 | – | – | – | – | – | – | – | – | – | – |
| NCI-H1299 | 0.867 | 0.924 | 0.941 | 0.873 | 0.933 | – | – | – | – | – | 0.973 | 1.03 | 1.04 | 1.01 | 0.999 | 1.09 | 1.06 | 1.08 | 1.06 | 1.06 |
| NCI-H522 | 0.721 | 0.752 | 0.745 | 0.652 | 0.698 | 0.68 | 0.695 | 0.693 | 0.609 | 0.764 | – | – | – | – | – | – | – | – | – | – |
